Measured values published in PubChem BioAssay (NCI).
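Briefly, cells in 96-well plates were exposed to five compound concentrations for 48 h, and endpoints were estimated by linear interpolation. Abbreviation: GI50, concentration required for 50% inhibition of growth. TGI marks complete inhibition of growth.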

Legend:
Test in all cases: DTP human tumour cell line panel, 48 h
SNB-19 CNS = system: SNB-19 CNS
OVCAR-8 ovarian = system: OVCAR-8 ovarian
T-47D breast = system: T-47D breast
UACC-257 melanoma = system: UACC-257 melanoma
SNB-75 CNS = system: SNB-75 CNS
COLO 205 colon = system: COLO 205 colon
BT-549 breast = system: BT-549 breast
HCC-2998 colon = system: HCC-2998 colon
SF-539 CNS = system: SF-539 CNS
NCI-H460 lung = system: NCI-H460 lung
MDA-MB-231 breast = system: MDA-MB-231 breast
NCI-H23 lung = system: NCI-H23 lung
DU-145 prostate = system: DU-145 prostate
HL-60(TB) leukemia = system: HL-60(TB) leukemia
ACHN renal = system: ACHN renal
UACC-62 melanoma = system: UACC-62 melanoma
HOP-62 NSCLC = system: HOP-62 NSCLC
OVCAR-3 ovarian = system: OVCAR-3 ovarian
M14 melanoma = system: M14 melanoma
PC-3 prostate = system: PC-3 prostate
A549 NSCLC = system: A549 NSCLC
786-0 renal = system: 786-0 renal
OVCAR-5 ovarian = system: OVCAR-5 ovarian
HS 578T breast = system: HS 578T breast
MOLT-4 leukemia = system: MOLT-4 leukemia
HT29 colon = system: HT29 colon
SN12C renal = system: SN12C renal
MDA-MB-468 breast = system: MDA-MB-468 breast
IGROV1 ovarian = system: IGROV1 ovarian
UO-31 renal = system: UO-31 renal
SF-268 CNS = system: SF-268 CNS
HOP-92 NSCLC = system: HOP-92 NSCLC
MDA-MB-435 = system: MDA-MB-435
K-562 leukemia = system: K-562 leukemia
SK-MEL-28 melanoma = system: SK-MEL-28 melanoma
SW-620 colon = system: SW-620 colon
RXF 393 renal = system: RXF 393 renal
EKVX NSCLC = system: EKVX NSCLC
RPMI-8226 leukemia = system: RPMI-8226 leukemia
SK-OV-3 ovarian = system: SK-OV-3 ovarian
U251 CNS = system: U251 CNS
SF-295 CNS = system: SF-295 CNS
A498 renal = system: A498 renal
KM12 colon = system: KM12 colon
MCF7 breast = system: MCF7 breast
HCT-116 colon = system: HCT-116 colon
CAKI-1 renal = system: CAKI-1 renal
NCI-H226 lung = system: NCI-H226 lung
OVCAR-4 ovarian = system: OVCAR-4 ovarian
SK-MEL-2 melanoma = system: SK-MEL-2 melanoma
MALME-3M melanoma = system: MALME-3M melanoma
SR leukemia = system: SR leukemia
HCT-15 colon = system: HCT-15 colon
CCRF-CEM leukemia = system: CCRF-CEM leukemia
TK-10 renal = system: TK-10 renal
NCI/ADR-RES ovarian = system: NCI/ADR-RES ovarian
NCI-H522 lung = system: NCI-H522 lung
LOX IMVI melanoma = system: LOX IMVI melanoma
SK-MEL-5 melanoma = system: SK-MEL-5 melanoma

CCc1ccc(SC2c3cc(OC)ccc3Oc3nc(N)c(C#N)c(N)c32)cc1 (stereo not drawn)
GI50 (SNB-19 CNS): 3.17 µM | TGI (SNB-19 CNS): 16.6 µM | GI50 (OVCAR-8 ovarian): 5.85 µM | TGI (OVCAR-8 ovarian): 37.4 µM | GI50 (T-47D breast): 3.36 µM | TGI (T-47D breast): 32.9 µM | GI50 (UACC-257 melanoma): 9.06 µM | TGI (UACC-257 melanoma): 29.6 µM | GI50 (SNB-75 CNS): 0.566 µM | TGI (SNB-75 CNS): 4.02 µM | GI50 (COLO 205 colon): 2.35 µM | TGI (COLO 205 colon): 6.19 µM | GI50 (BT-549 breast): 0.742 µM | TGI (BT-549 breast): 3.25 µM | GI50 (HCC-2998 colon): 4.9 µM | TGI (HCC-2998 colon): 17.1 µM | GI50 (SF-539 CNS): 1.59 µM | TGI (SF-539 CNS): 3.27 µM | GI50 (NCI-H460 lung): 2.84 µM | TGI (NCI-H460 lung): 15.3 µM | GI50 (MDA-MB-231 breast): 3.34 µM | TGI (MDA-MB-231 breast): 17 µM | GI50 (NCI-H23 lung): 2.9 µM | TGI (NCI-H23 lung): 14 µM | GI50 (DU-145 prostate): 11.7 µM | TGI (DU-145 prostate): 24.6 µM | GI50 (HL-60(TB) leukemia): 2.09 µM | TGI (HL-60(TB) leukemia): 6.11 µM | GI50 (ACHN renal): 5.6 µM | TGI (ACHN renal): 25.3 µM | GI50 (UACC-62 melanoma): 2.73 µM | TGI (UACC-62 melanoma): 11.5 µM | GI50 (HOP-62 NSCLC): 3.77 µM | TGI (HOP-62 NSCLC): > 100 µM | GI50 (OVCAR-3 ovarian): 2.9 µM | TGI (OVCAR-3 ovarian): 12.6 µM | GI50 (M14 melanoma): 2.67 µM | TGI (M14 melanoma): 12.4 µM | GI50 (PC-3 prostate): 1.52 µM | TGI (PC-3 prostate): 18.6 µM | GI50 (A549 NSCLC): 3.99 µM | TGI (A549 NSCLC): 49.4 µM | GI50 (786-0 renal): 3.11 µM | TGI (786-0 renal): 24.9 µM | GI50 (OVCAR-5 ovarian): 3.41 µM | TGI (OVCAR-5 ovarian): 14.4 µM | GI50 (HS 578T breast): 2.35 µM | TGI (HS 578T breast): 9.18 µM | GI50 (MOLT-4 leukemia): 1.28 µM | TGI (MOLT-4 leukemia): 9.69 µM | GI50 (HT29 colon): 6.15 µM | TGI (HT29 colon): > 100 µM | GI50 (SN12C renal): 1.76 µM | TGI (SN12C renal): 15.8 µM | GI50 (MDA-MB-468 breast): 2.1 µM | TGI (MDA-MB-468 breast): 6.56 µM | GI50 (IGROV1 ovarian): 0.349 µM | TGI (IGROV1 ovarian): 1.51 µM | GI50 (UO-31 renal): 0.575 µM | TGI (UO-31 renal): 4.17 µM | GI50 (SF-268 CNS): 1.99 µM | TGI (SF-268 CNS): 20.5 µM | GI50 (HOP-92 NSCLC): 3.66 µM | TGI (HOP-92 NSCLC): 35.4 µM | GI50 (MDA-MB-435): 2.05 µM | TGI (MDA-MB-435): 11.6 µM | GI50 (K-562 leukemia): 3.51 µM | TGI (K-562 leukemia): 24.4 µM | GI50 (SK-MEL-28 melanoma): 2.99 µM | TGI (SK-MEL-28 melanoma): 12.5 µM | GI50 (SW-620 colon): 3.15 µM | TGI (SW-620 colon): 13.1 µM | GI50 (RXF 393 renal): 1.76 µM | TGI (RXF 393 renal): 5.09 µM | GI50 (EKVX NSCLC): 3.74 µM | TGI (EKVX NSCLC): 17.3 µM | GI50 (RPMI-8226 leukemia): 3.02 µM | TGI (RPMI-8226 leukemia): 14.6 µM | GI50 (SK-OV-3 ovarian): 6.62 µM | TGI (SK-OV-3 ovarian): 82.4 µM | GI50 (U251 CNS): 1.82 µM | TGI (U251 CNS): 15.3 µM | GI50 (SF-295 CNS): 3.28 µM | TGI (SF-295 CNS): 15.7 µM | GI50 (A498 renal): 3.32 µM | TGI (A498 renal): 10.8 µM | GI50 (KM12 colon): 3.43 µM | TGI (KM12 colon): 16.1 µM | GI50 (MCF7 breast): 3.04 µM | TGI (MCF7 breast): 13.6 µM | GI50 (HCT-116 colon): 3.05 µM | TGI (HCT-116 colon): 13.9 µM | GI50 (CAKI-1 renal): 1.89 µM | TGI (CAKI-1 renal): 15 µM | GI50 (NCI-H226 lung): 2.26 µM | TGI (NCI-H226 lung): 23.3 µM | GI50 (OVCAR-4 ovarian): 4.23 µM | TGI (OVCAR-4 ovarian): 41.6 µM | GI50 (SK-MEL-2 melanoma): 3.42 µM | TGI (SK-MEL-2 melanoma): 13 µM | GI50 (MALME-3M melanoma): 10.6 µM | TGI (MALME-3M melanoma): 22.7 µM | GI50 (SR leukemia): 2.61 µM | TGI (SR leukemia): 22.8 µM | GI50 (HCT-15 colon): 2.96 µM | TGI (HCT-15 colon): 19.3 µM | GI50 (CCRF-CEM leukemia): 0.225 µM | TGI (CCRF-CEM leukemia): 4.34 µM | GI50 (TK-10 renal): 9.67 µM | TGI (TK-10 renal): 32.2 µM | GI50 (NCI/ADR-RES ovarian): 3.24 µM | TGI (NCI/ADR-RES ovarian): 26.4 µM | GI50 (NCI-H522 lung): 1.69 µM | TGI (NCI-H522 lung): 3.49 µM | GI50 (LOX IMVI melanoma): 0.23 µM | TGI (LOX IMVI melanoma): 0.658 µM | GI50 (SK-MEL-5 melanoma): 3.23 µM | TGI (SK-MEL-5 melanoma): 13.7 µM
